Data from patent US20260262643A1, “HERBICIDAL BENZOXAZINES” (FMC CORPORATION, priority 2022, published 2026).

Tests used:
[1] = tested on: sedge, umbrella; assay: Test B flooded paddy test; format: in vivo, Cyperus difformis; conditions: 250 g ai/ha, Flood, 13 days, 0 to 100 scale (0 no effect, 100 complete control)
Summary of the method: (§1)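 Compound is introduced into paddy water covering soil by 3 cm, treating plants that have reached two leaves. Pots are kept flooded at that depth under greenhouse conditions. Assessment at 13 days gives a 0–100 visual control score.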

[2] = tested on: ducksalad; assay: Test B flooded paddy test; format: in vivo, Heteranthera limosa; conditions: 250 g ai/ha, Flood, 13 days, 0 to 100 scale (0 no effect, 100 complete control)
Summary of the method: as §1

[3] = tested on: kochia; assay: Test A preemergence; format: in vivo, Bassia scoparia; conditions: visual injury after 10 days, 0 to 100 scale, 0 is no effect, 100 is complete control
Summary of the method: (§2)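 Greenhouse pot test, 10 days. Compound (non-phytotoxic solvent, surfactant) sprayed on soil at seeding or on seedlings at one- to two-leaf stage. Visual injury rated 0–100 against untreated plants.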

[4] = tested on: corn; assay: Test A postemergence; format: in vivo, Zea mays; conditions: postemergence, 10 days
Summary of the method: as §2

[5] = tested on: barnyardgrass; assay: Test A postemergence; format: in vivo, Echinochloa crusgalli; conditions: postemergence, 10 days
Summary of the method: as §2

[6] = tested on: blackgrass; assay: Test A preemergence; format: in vivo, Alopecurus myosuroides; conditions: visual injury after 10 days, 0 to 100 scale, 0 is no effect, 100 is complete control
Summary of the method: as §2

[7] = tested on: foxtail, giant; assay: Test A preemergence; format: in vivo, Setaria faberi; conditions: visual injury after 10 days, 0 to 100 scale, 0 is no effect, 100 is complete control
Summary of the method: as §2

[8] = tested on: kochia; assay: Test A postemergence; format: in vivo, Bassia scoparia; conditions: postemergence, 10 days
Summary of the method: as §2

[9] = tested on: wheat; assay: Test A postemergence; format: in vivo, Triticum aestivum; conditions: postemergence, 10 days
Summary of the method: as §2

[10] = tested on: barnyardgrass; assay: Test B flooded paddy test; format: in vivo, Echinochloa crus-galli; conditions: 250 g ai/ha, Flood, 13 days, 0 to 100 scale (0 no effect, 100 complete control)
Summary of the method: as §1

[11] = tested on: oat, wild; assay: Test A postemergence; format: in vivo, Avena fatua; conditions: postemergence, 10 days
Summary of the method: as §2

[12] = tested on: wheat; assay: Test A preemergence; format: in vivo, Triticum aestivum; conditions: visual injury after 10 days, 0 to 100 scale, 0 is no effect, 100 is complete control
Summary of the method: as §2

[13] = tested on: barnyardgrass; assay: Test A preemergence; format: in vivo, Echinochloa crusgalli; conditions: visual injury after 10 days, 0 to 100 scale, 0 is no effect, 100 is complete control
Summary of the method: as §2

[14] = tested on: galium; assay: Test A postemergence; format: in vivo, Galium aparine; conditions: postemergence, 10 days
Summary of the method: as §2

[15] = tested on: corn; assay: Test A preemergence; format: in vivo, Zea mays; conditions: visual injury after 10 days, 0 to 100 scale, 0 is no effect, 100 is complete control
Summary of the method: as §2

[16] = tested on: soybean; assay: Test A preemergence; format: in vivo, Glycine max; conditions: visual injury after 10 days, 0 to 100 scale, 0 is no effect, 100 is complete control
Summary of the method: as §2

[17] = tested on: oat, wild; assay: Test A preemergence; format: in vivo, Avena fatua; conditions: visual injury after 10 days, 0 to 100 scale, 0 is no effect, 100 is complete control
Summary of the method: as §2

[18] = tested on: blackgrass; assay: Test A postemergence; format: in vivo, Alopecurus myosuroides; conditions: postemergence, 10 days
Summary of the method: as §2

[19] = tested on: foxtail, giant; assay: Test A postemergence; format: in vivo, Setaria faberi; conditions: postemergence, 10 days
Summary of the method: as §2

[20] = tested on: rice; assay: Test B flooded paddy test; format: in vivo, Oryza sativa; conditions: 250 g ai/ha, Flood, 13 days, 0 to 100 scale (0 no effect, 100 complete control)
Summary of the method: as §1

[21] = tested on: pigweed, palmer; assay: Test A preemergence; format: in vivo, Amaranthus palmeri; conditions: visual injury after 10 days, 0 to 100 scale, 0 is no effect, 100 is complete control
Summary of the method: as §2

[22] = tested on: ragweed; assay: Test A preemergence; format: in vivo, Ambrosia artemisiifolia; conditions: visual injury after 10 days, 0 to 100 scale, 0 is no effect, 100 is complete control
Summary of the method: as §2

[23] = tested on: ryegrass, Italian; assay: Test A postemergence; format: in vivo, Lolium multiflorum; conditions: postemergence, 10 days
Summary of the method: as §2

[24] = tested on: pigweed, palmer; assay: Test A postemergence; format: in vivo, Amaranthus palmeri; conditions: postemergence, 10 days
Summary of the method: as §2

[25] = tested on: ryegrass, Italian; assay: Test A preemergence; format: in vivo, Lolium multiflorum; conditions: visual injury after 10 days, 0 to 100 scale, 0 is no effect, 100 is complete control
Summary of the method: as §2

[26] = tested on: soybean; assay: Test A postemergence; format: in vivo, Glycine max; conditions: postemergence, 10 days
Summary of the method: as §2

[27] = tested on: horseweed; assay: Test A postemergence; format: in vivo, Erigeron canadensis; conditions: postemergence, 10 days
Summary of the method: as §2

[28] = tested on: ragweed; assay: Test A postemergence; format: in vivo, Ambrosia artemisiifolia; conditions: postemergence, 10 days
Summary of the method: as §2

[29] = 125 g ai/ha, 0 to 100 scale, 0 no effect, 100 complete control
[30] = 500 g ai/ha, visual injury, 0 to 100 scale (0 no effect, 100 complete control)

`C[C@H]1CN(C(=O)c2cc(Br)cc(-n3cncn3)c2)c2cccc(Cl)c2O1` [Compound 114] was tested, and the “Plant response rating, Sedge, Umbrella” value [1] was 0, the “Plant response rating, Ducksalad” value [2] was 0 and the “Plant response rating, Kochia” value ([3]; 125 g ai/ha) was 0. For the same compound, the “Plant response rating, Kochia” value ([3]; 500 g ai/ha) was 20, the “Corn plant response rating” value [4, 29] was 50 and the “Plant response rating, Corn” value [4, 30] was 80. The “Barnyardgrass plant response rating” value [5, 29] was 10, the “Plant response rating, Barnyardgrass” value [5, 30] was 70 and the “Plant response rating, Blackgrass” value ([6]; 125 g ai/ha) was 30. The “Plant response rating, Blackgrass” value ([6]; 500 g ai/ha) was 70, the “Plant response rating, Foxtail, Giant” value ([7]; 125 g ai/ha) was 80 and the “Plant response rating, Foxtail, Giant” value ([7]; 500 g ai/ha) was 100. The “Kochia plant response rating” value [8, 29] was 40, the “Plant response rating, Kochia” value [8, 30] was 80 and the “Wheat plant response rating” value [9, 29] was 10. The “Plant response rating, Wheat” value [9, 30] was 40, the “Plant response rating, Barnyardgrass” value [10] was 0 and the “Oat, Wild plant response rating” value [11, 29] was 0. The “Plant response rating, Oat, Wild” value [11, 30] was 40, the “Plant response rating, Wheat” value ([12]; 125 g ai/ha) was 20 and the “Plant response rating, Wheat” value ([12]; 500 g ai/ha) was 50. The “Plant response rating, Barnyardgrass” value ([13]; 125 g ai/ha) was 30, the “Plant response rating, Barnyardgrass” value ([13]; 500 g ai/ha) was 90 and the “Galium plant response rating” value [14, 29] was 60. The “Plant response rating, Galium” value [14, 30] was 70, the “Plant response rating, Corn” value ([15]; 125 g ai/ha) was 0 and the “Plant response rating, Corn” value ([15]; 500 g ai/ha) was 0. For the same compound, the “Plant response rating, Soybean” value ([16]; 125 g ai/ha) was 0, the “Plant response rating, Soybean” value ([16]; 500 g ai/ha) was 0 and the “Plant response rating, Oat, Wild” value ([17]; 125 g ai/ha) was 0. The “Plant response rating, Oat, Wild” value ([17]; 500 g ai/ha) was 20, the “Blackgrass plant response rating” value [18, 29] was 50 and the “Plant response rating, Blackgrass” value [18, 30] was 90. The “Foxtail, Giant plant response rating” value [19, 29] was 70, the “Plant response rating, Foxtail, Giant” value [19, 30] was 90 and the “Plant response rating, Rice” value [20] was 0. The “Plant response rating, Pigweed, Palmer” value ([21]; 125 g ai/ha) was 50, the “Plant response rating, Pigweed, Palmer” value ([21]; 500 g ai/ha) was 90 and the “Plant response rating, Ragweed” value ([22]; 125 g ai/ha) was 0. The “Plant response rating, Ragweed” value ([22]; 500 g ai/ha) was 0, the “Ryegrass, Italian plant response rating” value [23, 29] was 50 and the “Plant response rating, Ryegrass, Italian” value [23, 30] was 70. The “Pigweed, Palmer plant response rating” value [24, 29] was 40, the “Plant response rating, Pigweed, Palmer” value [24, 30] was 100 and the “Plant response rating, Ryegrass, Italian” value ([25]; 125 g ai/ha) was 50. For the same compound, the “Plant response rating, Ryegrass, Italian” value ([25]; 500 g ai/ha) was 90, the “Soybean plant response rating” value [26, 29] was 60 and the “Plant response rating, Soybean” value [26, 30] was 100. For the same compound, the “Horseweed plant response rating” value [27, 29] was 0, the “Plant response rating, Horseweed” value [27, 30] was 0 and the “Ragweed plant response rating” value [28, 29] was 0. The “Plant response rating, Ragweed” value [28, 30] was 0.
